Experimental data: PubChem BioAssay (NCI)
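Exposure lasted 48 hours, with cells grown in 96-well plates and compounds tested at five concentrations. TGI is the concentration that stops growth completely.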

Assays:
Experiment in all cases: NCI-60 cell line screen, 48 h
786-0 renal = test system: 786-0 renal
RXF 393 renal = test system: RXF 393 renal
OVCAR-4 ovarian = test system: OVCAR-4 ovarian
MDA-N = test system: MDA-N
MDA-MB-435 = test system: MDA-MB-435
HOP-62 NSCLC = test system: HOP-62 NSCLC
MCF7 breast = test system: MCF7 breast
ACHN renal = test system: ACHN renal
MALME-3M melanoma = test system: MALME-3M melanoma
MDA-MB-231 breast = test system: MDA-MB-231 breast
NCI-H522 lung = test system: NCI-H522 lung
SF-268 CNS = test system: SF-268 CNS
SK-MEL-2 melanoma = test system: SK-MEL-2 melanoma
SN12C renal = test system: SN12C renal

SMILES | TGI (786-0 renal) [µM] | TGI (RXF 393 renal) [µM] | TGI (OVCAR-4 ovarian) [µM] | TGI (MDA-N) [µM] | TGI (MDA-MB-435) [µM] | TGI (HOP-62 NSCLC) [µM] | TGI (MCF7 breast) [µM] | TGI (ACHN renal) [µM] | TGI (MALME-3M melanoma) [µM] | TGI (MDA-MB-231 breast) [µM] | TGI (NCI-H522 lung) [µM] | TGI (SF-268 CNS) [µM] | TGI (SK-MEL-2 melanoma) [µM] | TGI (SN12C renal) [µM]
C=CC1(C)OC2(CCN(C(=O)OCC)CC2)OC1C (centres undefined) | > 100 | > 100 | > 100 | > 100 | > 100 | > 100 | > 100 | > 100 | > 100 | > 100 | > 100 | > 100 | > 100 | 
CC1=NN(c2nc(N)nc(/C(C#N)=C\c3cccc([N+](=O)[O-])c3)n2)C(C)(C)C1 | 32 | 14.3 | > 60.9 | > 33.3 | > 26 | 43.8 | > 23 | > 51.4 | > 54.9 | 25.1 |  | > 65.1 | > 29.9 | > 65.3
CC1=CCC2CC1NC(=O)CCOCCC(=O)NC2(C)C (centres undefined) | > 100 | > 100 | > 100 | > 100 | > 100 |  | > 100 | > 100 |  | > 100 | > 100 | > 100 | > 100 | > 100
CCCCC(=O)Nc1ccc2c(C)cc(-c3ccc(-c4cc(-c5ccc(C)cc5)cc(-c5ccc(-c6cc(C)c7ccc(NC(=O)CCCC)nc7n6)cc5)n4)cc3)nc2n1 | > 100 |  | > 100 | > 100 | > 100 | > 100 | > 100 | > 100 | > 100 | > 100 | > 100 | > 100 | > 100 | > 100
CC1C(c2ccccc2O)c2cc3c(cc2OC1N1CCOCC1)OCO3 (centres undefined) | > 100 | 48.9 |  | > 100 | 82.8 | 35.8 | > 100 | > 100 | 35.1 | 73.9 | 37.8 | > 100 | 72.5 | > 100
COC1/C=C/C(C)C(C(C)C(OC)C(C)CCC(=O)C(C)C(CC(=O)O)OC)OC(=O)/C=C/C=C(\C)CC(OC)CC2=CC(=O)O[C@H](C2)C(C)C(OC)CC(OC)/C=C/C(C)C(OC)C1 (some centres undefined) | > 4.35 |  | > 4.35 | > 4.35 | > 4.35 | > 4.35 | > 4.35 | > 4.35 |  | > 4.35 | 1.82 | 0.207 | > 4.35 | > 4.35
Clc1c2ccccc2nc2c1[nH]c1ccccc12 | > 100 |  | > 100 | 16.9 | > 100 | > 100 | > 100 | > 100 | > 100 | 46.7 | > 100 | > 100 | > 100 | > 100
CCOC(=O)c1cc(C2CCN(Cc3ccccc3)C2=S)c(C(=O)C=[N+]=[N-])[nH]1 (centres undefined) | 85.4 | 75.5 | > 100 | 49.4 | > 100 | > 100 | 40.4 | > 100 | 66.3 | > 100 | 46.7 | 73.9 | 63 | 
CCO/C(Cc1ccc(Cl)cc1)=N/NC(N)=S | > 100 |  | > 100 | > 100 | > 100 | > 100 | > 100 | > 100 | > 100 | > 100 |  |  | > 100 | > 100
O=C1CCCc2ccc3c(c21)CC1(Cc2ccccc2C1)C3 | > 100 | > 100 | 98.8 | 67.2 | > 100 | > 100 | > 100 | 68.9 | > 100 | > 100 | 74.3 |  | > 100 | > 100
CN(C)c1ccc(/C=C/c2cc(-c3ccccc3)[n+](C)n2-c2ccccc2)cc1 | 23 | 4.18 | > 69.2 | 13.6 | 2.98 | 12.4 | > 33.3 | 16 |  | 17.2 | 0.318 | 4.77 | 0.953 | 7.6
c1ccc([P+](CCCCCC[P+](c2ccccc2)(c2ccccc2)c2ccccc2)(c2ccccc2)c2ccccc2)cc1 | > 100 | > 100 | > 100 | 54.9 | 72.9 | > 100 | 74.1 | > 100 | > 100 | > 100 | > 100 | > 100 |  | > 100
COC1=CC(=O)C2=C(C[C@@]3(C)C(=C2)C(CO)=CC[C@H]3O)C1=O | 38.1 | 30.9 | 31.8 | 37.4 | 41.2 | 49.6 | 32.3 | 33.1 | > 100 | 13.2 |  | 32.7 |  | 32.8
CC1(C)C2CCC(O)(C2)C1N (centres undefined) | > 100 | > 100 | > 100 | > 100 | > 100 | > 100 | > 100 | > 100 | > 100 | > 100 |  | > 100 | > 100 | > 100
COc1cc2c[n+](C)c3c(c2cc1OC)Cc1cc2c(cc1-3)OCO2 | > 100 |  | > 100 | > 100 | > 100 | > 100 | > 100 |  | > 100 | > 100 | > 100 | > 100 | > 100 | > 100
O=C1NC(=S)NC(=O)C1=C/C=C/c1ccc([N+](=O)[O-])cc1 | 34.5 | 26.8 | 36.1 | 27.7 | 28.3 | 34.9 | 34.9 | 39 | 80.8 | 35.5 |  | 36.8 | 30.9 | 34.7
COc1ccc(C(=O)/C=C/c2ccc(OCC(=N)N)cc2)cc1 | 29.9 | 28.3 | 30.5 | 31.4 | 36.8 | 29.9 | 26.8 | 31.9 | 32 | 27.8 |  | 35.6 |  | 26.7
